From ChEMBL document CHEMBL3244369, “Synthesis and inhibition analysis of 2(4)-imino-4(2)-amino-2,4-dideoxyriboflavin, a dual antagonist of riboflavin and folinic acid” (J Med Chem, 1977)
Calls of active or inactive are those of the source. No cut-off for these calls is given here.

Assays:
Type in all cases: functional
[1] = Antifolate activity against Lactobacillus leichmannii at 20 ug/ml
[2] = test system: Lactobacillus leichmannii; assay: Inhibition index, ratio of antifolate activity against Lactobacillus leichmannii in presence of 250 ug/ml of riboflavin to antifolate activity against Lactobacillus leichmannii absence of riboflavin
[3] = Antifolate activity against Lactobacillus leichmannii at 20 to 60 ug/ml in presence of 0.02 ug/ml of folinic acid
[4] = Antifolate activity against Lactobacillus leichmannii at 150 ug/ml in presence of 0.02 ug/ml of folinic acid and 250 ug/ml riboflavin
[5] = Antifolate activity against Lactobacillus leichmannii at 7 ug/ml
[6] = test system: Lactobacillus leichmannii; assay: Inhibition index, ratio of antifolate activity against Lactobacillus leichmannii in presence of 0.02 ug/ml of folinic acid to antifolate activity against Lactobacillus leichmannii absence of folinic acid

Cc1cc2nc3c(N)nc(=N)nc-3n(C[C@H](O)[C@H](O)[C@H](O)CO)c2cc1C
growth inhibition (GI) [1]: Active
Ratio [2]: 1.5
growth inhibition (GI) [3]: inactive
growth inhibition (GI) [4]: inactive
growth inhibition (GI) [5]: Active
Ratio [6]: 6000
